In PubChem BioAssay (NCI):
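At the GI50, growth is halved. TGI: total growth inhibition.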

Legend:
Experiment in all cases: growth of human tumour cells (NCI), 384-well format
786-0 renal = system: 786-0 renal
A498 renal = system: A498 renal
A549 NSCLC = system: A549 NSCLC
ACHN renal = system: ACHN renal
BT-549 breast = system: BT-549 breast
CAKI-1 renal = system: CAKI-1 renal
COLO 205 colon = system: COLO 205 colon
DU-145 prostate = system: DU-145 prostate
EKVX NSCLC = system: EKVX NSCLC
HCT-116 colon = system: HCT-116 colon
HCT-15 colon = system: HCT-15 colon
HL-60(TB) leukemia = system: HL-60(TB) leukemia
HOP-62 NSCLC = system: HOP-62 NSCLC
HOP-92 NSCLC = system: HOP-92 NSCLC
HS 578T breast = system: HS 578T breast
HT29 colon = system: HT29 colon
IGROV1 ovarian = system: IGROV1 ovarian
K-562 leukemia = system: K-562 leukemia
KM12 colon = system: KM12 colon
M14 melanoma = system: M14 melanoma
MALME-3M melanoma = system: MALME-3M melanoma
MCF7 breast = system: MCF7 breast
MDA-MB-231 breast = system: MDA-MB-231 breast
MDA-MB-435 melanoma = system: MDA-MB-435 melanoma
MDA-MB-468 breast = system: MDA-MB-468 breast
MOLT-4 leukemia = system: MOLT-4 leukemia
NCI-H226 lung = system: NCI-H226 lung
NCI-H23 lung = system: NCI-H23 lung
NCI-H322M lung = system: NCI-H322M lung
NCI-H460 NSCLC = system: NCI-H460 NSCLC
NCI-H522 lung = system: NCI-H522 lung
OVCAR-3 ovarian = system: OVCAR-3 ovarian
OVCAR-4 ovarian = system: OVCAR-4 ovarian
OVCAR-5 ovarian = system: OVCAR-5 ovarian
OVCAR-8 ovarian = system: OVCAR-8 ovarian
PC-3 prostate = system: PC-3 prostate
RXF 393 renal = system: RXF 393 renal
SF-268 CNS = system: SF-268 CNS
SF-295 CNS = system: SF-295 CNS
SF-539 CNS = system: SF-539 CNS
SK-MEL-2 melanoma = system: SK-MEL-2 melanoma
SK-MEL-28 melanoma = system: SK-MEL-28 melanoma
SK-MEL-5 melanoma = system: SK-MEL-5 melanoma
SK-OV-3 ovarian = system: SK-OV-3 ovarian
SN12C renal = system: SN12C renal
SNB-19 CNS = system: SNB-19 CNS
SNB-75 CNS = system: SNB-75 CNS
SR leukemia = system: SR leukemia
SW-620 colon = system: SW-620 colon
T-47D breast = system: T-47D breast
TK-10 renal = system: TK-10 renal
U251 glioblastoma = system: U251 glioblastoma
UACC-257 melanoma = system: UACC-257 melanoma
UACC-62 melanoma = system: UACC-62 melanoma
UO-31 renal = system: UO-31 renal

O=C1COc2c(CCNCCN(C(=O)CCNCCc3ccc(Cl)c(Cl)c3)C3CCCCC3)ccc(O)c2N1
GI50 ([…]-0 renal): 15.8 µM
TGI (786-0 renal): 29.3 µM
GI50 (A498 renal): 14.9 µM
TGI (A498 renal): 28.2 µM
GI50 (A549 NSCLC): 17.5 µM
TGI (A549 NSCLC): 31.4 µM
GI50 (ACHN renal): 15.5 µM
TGI (ACHN renal): 28.9 µM
GI50 (BT-549 breast): 3.29 µM
TGI (BT-549 breast): 12 µM
GI50 (CAKI-1 renal): 14.5 µM
TGI (CAKI-1 renal): 27.7 µM
GI50 (COLO 205 colon): 2.69 µM
TGI (COLO 205 colon): 6.13 µM
GI50 (DU-145 prostate): 16.2 µM
TGI (DU-145 prostate): 29.8 µM
GI50 (EKVX NSCLC): 12.4 µM
TGI (EKVX NSCLC): 24.9 µM
GI50 (HCT-116 colon): 11.5 µM
TGI (HCT-116 colon): 23.7 µM
GI50 (HCT-15 colon): 17.8 µM
TGI (HCT-15 colon): 31.9 µM
GI50 (HL-60(TB) leukemia): 1.83 µM
TGI (HL-60(TB) leukemia): 3.25 µM
GI50 (HOP-62 NSCLC): 14.5 µM
TGI (HOP-62 NSCLC): 27.7 µM
GI50 (HOP-92 NSCLC): 1.89 µM
TGI (HOP-92 NSCLC): 4.35 µM
GI50 (HS 578T breast): 1.76 µM
TGI (HS 578T breast): 3.44 µM
GI50 (HT29 colon): 13.4 µM
TGI (HT29 colon): 26.2 µM
GI50 (IGROV1 ovarian): 7.16 µM
TGI (IGROV1 ovarian): 19.7 µM
GI50 (K-562 leukemia): 3.24 µM
TGI (K-562 leukemia): 10.3 µM
GI50 (KM12 colon): 11.1 µM
TGI (KM12 colon): 23.3 µM
GI50 (M14 melanoma): 4.2 µM
TGI (M14 melanoma): 12.9 µM
GI50 (MALME-3M melanoma): 5.14 µM
TGI (MALME-3M melanoma): 15.6 µM
GI50 (MCF7 breast): 1.89 µM
TGI (MCF7 breast): 3.38 µM
GI50 (MDA-MB-231 breast): 1.88 µM
TGI (MDA-MB-231 breast): 10.7 µM
GI50 (MDA-MB-435 melanoma): 2.12 µM
TGI (MDA-MB-435 melanoma): 4.44 µM
GI50 (MDA-MB-468 breast): 1.83 µM
TGI (MDA-MB-468 breast): 3.27 µM
GI50 (MOLT-4 leukemia): 2.01 µM
TGI (MOLT-4 leukemia): 3.45 µM
GI50 (NCI-H226 lung): 12.3 µM
TGI (NCI-H226 lung): 24.8 µM
GI50 (NCI-H23 lung): 14.8 µM
TGI (NCI-H23 lung): 28 µM
GI50 (NCI-H322M lung): 14.2 µM
TGI (NCI-H322M lung): 27.3 µM
GI50 (NCI-H460 NSCLC): 2.26 µM
TGI (NCI-H460 NSCLC): 4.96 µM
GI50 (NCI-H522 lung): 2.5 µM
TGI (NCI-H522 lung): 5.7 µM
GI50 (OVCAR-3 ovarian): 10.3 µM
TGI (OVCAR-3 ovarian): 22 µM
GI50 (OVCAR-4 ovarian): 16.1 µM
TGI (OVCAR-4 ovarian): 29.7 µM
GI50 (OVCAR-5 ovarian): 16.2 µM
TGI (OVCAR-5 ovarian): 29.8 µM
GI50 (OVCAR-8 ovarian): 15.1 µM
TGI (OVCAR-8 ovarian): 28.5 µM
GI50 (PC-3 prostate): 10.8 µM
TGI (PC-3 prostate): 22.8 µM
GI50 (RXF 393 renal): 2.86 µM
TGI (RXF 393 renal): 10.8 µM
GI50 (SF-268 CNS): 4.73 µM
TGI (SF-268 CNS): 16.1 µM
GI50 (SF-295 CNS): 13.7 µM
TGI (SF-295 CNS): 26.6 µM
GI50 (SF-539 CNS): 11.2 µM
TGI (SF-539 CNS): 23.3 µM
GI50 (SK-MEL-2 melanoma): 1.79 µM
TGI (SK-MEL-2 melanoma): 3.18 µM
GI50 (SK-MEL-28 melanoma): 4.31 µM
TGI (SK-MEL-28 melanoma): 14.6 µM
GI50 (SK-MEL-5 melanoma): 6.31 µM
TGI (SK-MEL-5 melanoma): 18.1 µM
GI50 (SK-OV-3 ovarian): 15.5 µM
TGI (SK-OV-3 ovarian): 28.9 µM
GI50 (SN12C renal): 15.8 µM
TGI (SN12C renal): 29.3 µM
GI50 (SNB-19 CNS): 16.8 µM
TGI (SNB-19 CNS): 30.5 µM
GI50 (SNB-75 CNS): 2.28 µM
TGI (SNB-75 CNS): 7.25 µM
GI50 (SR leukemia): 1.75 µM
TGI (SR leukemia): 3.14 µM
GI50 (SW-620 colon): 5.25 µM
TGI (SW-620 colon): 16.8 µM
GI50 (T-47D breast): 4.22 µM
TGI (T-47D breast): 14.6 µM
GI50 (TK-10 renal): 10.4 µM
TGI (TK-10 renal): 22.2 µM
GI50 (U251 glioblastoma): 5.85 µM
TGI (U251 glioblastoma): 18 µM
GI50 (UACC-257 melanoma): 2.75 µM
TGI (UACC-257 melanoma): 6.62 µM
GI50 (UACC-62 melanoma): 2.1 µM
TGI (UACC-62 melanoma): 4.82 µM
GI50 (UO-31 renal): 17.8 µM
TGI (UO-31 renal): 31.7 µM
